Columns and labels:
hypertensive subjects = assay: Example 4 dose-ranging study: automated office blood pressure (AOBP); format: in vivo, human; settings: for Change in AOBP BPdias, Mean (sem) / Change in AOBP BPsys, Mean (sem): Week 8, Full Analysis Set
Protocol: A randomized, double-blinded, placebo-controlled, dose-ranging, multicenter study was conducted to evaluate the effect of orally administered Compound A HBr on blood pressure for the treatment of hypertension in male and female subjects ≥18 years of age.
The study consists of two parts. For enrollment into Part 1 of the study, a subject's value of plasma renin activity (PRA) must be ≤1 ng/mL/h based on morning measurement. If the value of PRA >1 ng/mL/h based on morning measurement, then subjects may be eligible to enter Part 2 of the study.
For Part 1, 163 enrolled subjects ≥18 years of age were randomized into 6 equal treatment groups (1:1:1:1:1:1) to 12.5 mg BID, 25 mg BID, 12.5 mg QD, 50 mg QD, 100 mg QD, or placebo. After a review of interim clinical data, the 2 lowest dose levels (12.5 mg QD and 12.5 mg BID) were stopped for future randomization due to a lack of consistent meaningful reduction of blood pressure, but the patients randomized to that point remained in the study through completion. Thus, after the review of interim clinical data, subjects were randomized into 4 equal treatment groups (1:1:1:1) to 25 mg BID, 50 mg QD, 100 mg QD, or placebo.
For Part 2, 36 enrolled subjects ≥18 years of age were randomized (5:1) to either 100 mg QD Compound A HBr or placebo such that the Compound A HBr treatment group consisted of approximately 30 subjects and the placebo treatment group will consist of approximately 6 subjects.
Subjects orally administered the assigned study drug (Compound A HBr or placebo) according to the assigned dosing regimen for 8 weeks beginning on Study Day 1. All subjects in Part 1 (regardless of dosing group) received BID dosing to preserve the integrity of the blind; active drug is administered as the morning dose for all QD dose groups. Subjects returned to the research facility or were seen by the clinical investigator or approved home health care professional at the end of Study Weeks 1, 2, 3, 4, 5, 6, 7, and 8 (±2 days) for protocol-defined efficacy and safety assessments and procedures, assessment of adverse events (AEs), and confirmation of compliance with study drug usage. Subjects also completed a telephone visit and blood pressure (BP) check at home approximately 3 days post last dose of study drug. Subjects attended up to 14 full clinic visits, including a pre-Screening visit, a Screening/start of Placebo Run-in visit, a second visit during Placebo Run-in, a clinic visit to initiate the ABPM procedure, a Randomization visit, 8 weekly visits during double-blind treatment, and an end-of-study visit scheduled 4 weeks after the last study treatment for final efficacy and safety assessments.
An automated oscillometric sphygmomanometer device was used to measure the subjects' systolic and diastolic blood pressure in office after approximately 5 minutes of rest in the seated position.
The primary endpoint is the change in office-measured (mean of last 2 of 5 unattended measurements using an automated oscillometric sphygmomanometer device after approximately 5 minutes of rest in the seated position) systolic blood pressure (SBP) from baseline to the end of Study Week 8.

human CYP11B2 (hCYP11B2) = molecular target: T1, human CYP11B2 (hCYP11B2) (Homo sapiens, UniProt P19099); assay: Assay of hCYP11B2 inhibition (11-DOC to aldosterone); format: biochemical; settings: mitochondrial fraction of V79 cells stably expressing hCYP11B2; substrate 11-DOC; read-out: Inhibition constant (Ki) hCYP11B2
T1 construct: expressed in transfected cells; host or cells: V79 cells (mitochondrial fraction)
T1 sequence (P19099 25-503): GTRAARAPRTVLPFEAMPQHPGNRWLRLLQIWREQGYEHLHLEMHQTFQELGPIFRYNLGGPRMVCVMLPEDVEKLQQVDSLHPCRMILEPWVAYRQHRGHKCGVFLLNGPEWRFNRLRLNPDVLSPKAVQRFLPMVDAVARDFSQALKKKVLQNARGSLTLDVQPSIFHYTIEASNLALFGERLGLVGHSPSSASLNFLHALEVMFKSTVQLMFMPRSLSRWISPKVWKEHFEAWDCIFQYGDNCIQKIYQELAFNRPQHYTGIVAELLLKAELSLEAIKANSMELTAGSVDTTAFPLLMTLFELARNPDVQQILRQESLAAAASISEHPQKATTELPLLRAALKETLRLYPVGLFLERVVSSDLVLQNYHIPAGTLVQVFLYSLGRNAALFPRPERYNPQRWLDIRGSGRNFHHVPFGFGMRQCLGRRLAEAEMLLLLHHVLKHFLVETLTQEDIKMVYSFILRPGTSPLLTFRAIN
Protocol: The inhibitory effects of Compound A on human CYP 11B1 (hCYP11B1) and human CYP11B2 (hCYP11B2) enzyme activity were evaluated by determining the enzymatic conversion rates of 11-deoxycortisol to cortisol for hCYP11B1 and 11-DOC to aldosterone for hCYP11B2.

[1] = system: plasma aldosterone concentrations (PACs); assay: Sodium-depleted cynomolgus monkey model; format: in vivo; settings: single oral administration
Protocol: A sodium-depleted cynomolgus monkey model with secondary hyperaldosteronism was performed to evaluate the effect of Compound A on plasma aldosterone concentrations (PACs). The model used a low-sodium diet and 3 doses of 5 mg/kg furosemide. Two animals each were assigned to 6 groups consisting of a vehicle group and 5 Compound A (free base) groups (0.3, 1, 3, 10, and 30 mg/kg). Six crossovers were performed so that every animal was assigned to each group. Hyperaldosteronism was induced once every 3 weeks. PAC was determined by radioimmunoassay and measured during the 24 hours after Compound A administration.

[2] = pooled 50 mg QD, 100 mg QD, 12.5 mg BID and 25 mg BID cohorts (N=103)

CC(=O)N[C@H]1CC[C@H](NC(=O)CN2CCN(c3nncc(-c4ccc(C)cc4)n3)CC2)CC1 [Compound A HBr]
reduction in AOBP systolic BP, placebo-corrected, Full-analysis set (hypertensive subjects; 100 mg, Part-1 and Part-2 (interim) combined, N=58 active): −9.9 mmHg | Difference from placebo in blood pressure change (LS modeled mean) (hypertensive subjects; Age 65-79, 12.5 mg BID): −1.5 (13) | Difference from placebo in blood pressure change (LS modeled mean) (hypertensive subjects; Age 65-79, 12.5 mg QD): 1.1 (10) | Difference from placebo in blood pressure change (LS modeled mean) (hypertensive subjects; Age 65-79, 25 mg BID): −2.4 (15) | Difference from placebo in blood pressure change (LS modeled mean) (hypertensive subjects; Age 65-79, 50 mg QD): −8.8 (13) | Difference from placebo in blood pressure change (LS modeled mean) (hypertensive subjects; Age 65-79, 100 mg QD): −1.6 (18) | Difference from placebo in blood pressure change (LS modeled mean) (hypertensive subjects; Age <65, 12.5 mg BID): −5.4 (6) | Difference from placebo in blood pressure change (LS modeled mean) (hypertensive subjects; Age <65, 12.5 mg QD): −0.3 (10) | Difference from placebo in blood pressure change (LS modeled mean) (hypertensive subjects; Age <65, 25 mg BID): −8.5 (13) | Difference from placebo in blood pressure change (LS modeled mean) (hypertensive subjects; Age <65, 50 mg QD): −10.2 (13) | Difference from placebo in blood pressure change (LS modeled mean) (hypertensive subjects; Age <65, 100 mg QD): −15.7 (8) | Difference from placebo in blood pressure change (LS modeled mean) (hypertensive subjects; Background hypertension therapy 2 medications, 12.5 mg BID): −1.2 (7) | Difference from placebo in blood pressure change (LS modeled mean) (hypertensive subjects; Background hypertension therapy 2 medications, 12.5 mg QD): 1.8 (14) | Difference from placebo in blood pressure change (LS modeled mean) (hypertensive subjects; Background hypertension therapy 2 medications, 25 mg BID): 1.4 (14) | Difference from placebo in blood pressure change (LS modeled mean) (hypertensive subjects; Background hypertension therapy 2 medications, 50 mg QD): −3.7 (20) | Difference from placebo in blood pressure change (LS modeled mean) (hypertensive subjects; Background hypertension therapy 2 medications, 100 mg QD): −7.5 (14) | Difference from placebo in blood pressure change (LS modeled mean) (hypertensive subjects; Background hypertension therapy 3+ medications, 12.5 mg BID, * p < 0.05): −12.2* (15) | Difference from placebo in blood pressure change (LS modeled mean) (hypertensive subjects; Background hypertension therapy 3+ medications, 12.5 mg QD): −6.0 (9) | Difference from placebo in blood pressure change (LS modeled mean) (hypertensive subjects; Background hypertension therapy 3+ medications, 25 mg BID, * p < 0.05): −15.8* (16) | Difference from placebo in blood pressure change (LS modeled mean) (hypertensive subjects; Background hypertension therapy 3+ medications, 50 mg QD, * p < 0.05): −19.1* (8) | Difference from placebo in blood pressure change (LS modeled mean) (hypertensive subjects; Background hypertension therapy 3+ medications, 100 mg QD): −9.6 (16) | Difference from placebo in blood pressure change (LS modeled mean) (hypertensive subjects; Baseline BPsys High tertile, 12.5 mg BID): −9.7 | Difference from placebo in blood pressure change (LS modeled mean) (hypertensive subjects; Baseline BPsys High tertile, 12.5 mg QD): −3.6 | Difference from placebo in blood pressure change (LS modeled mean) (hypertensive subjects; Baseline BPsys High tertile, 25 mg BID): −5.6 | Difference from placebo in blood pressure change (LS modeled mean) (hypertensive subjects; Baseline BPsys High tertile, 50 mg QD, * p < 0.05): −20.6* | Difference from placebo in blood pressure change (LS modeled mean) (hypertensive subjects; Baseline BPsys High tertile, 100 mg QD): −9.7 | Difference from placebo in blood pressure change (LS modeled mean) (hypertensive subjects; Baseline BPsys Low tertile, 12.5 mg BID): 3.8 | Difference from placebo in blood pressure change (LS modeled mean) (hypertensive subjects; Baseline BPsys Low tertile, 12.5 mg QD): −10.7 | Difference from placebo in blood pressure change (LS modeled mean) (hypertensive subjects; Baseline BPsys Low tertile, 25 mg BID): −8.8 | Difference from placebo in blood pressure change (LS modeled mean) (hypertensive subjects; Baseline BPsys Low tertile, 50 mg QD): −8.3 | Difference from placebo in blood pressure change (LS modeled mean) (hypertensive subjects; Baseline BPsys Low tertile, 100 mg QD): −11.8 | Difference from placebo in blood pressure change (LS modeled mean) (hypertensive subjects; Baseline BPsys Middle tertile, 12.5 mg BID): −9.7 | Difference from placebo in blood pressure change (LS modeled mean) (hypertensive subjects; Baseline BPsys Middle tertile, 12.5 mg QD): 9.3 | Difference from placebo in blood pressure change (LS modeled mean) (hypertensive subjects; Baseline BPsys Middle tertile, 25 mg BID): −4.0 | Difference from placebo in blood pressure change (LS modeled mean) (hypertensive subjects; Baseline BPsys Middle tertile, 50 mg QD): −11.9 | Difference from placebo in blood pressure change (LS modeled mean) (hypertensive subjects; Baseline BPsys Middle tertile, 100 mg QD): −11.8 | Difference from placebo in blood pressure change (LS modeled mean) (hypertensive subjects; Gender Female, 12.5 mg BID): −3.79 (14) | Difference from placebo in blood pressure change (LS modeled mean) (hypertensive subjects; Gender Female, 12.5 mg QD): −0.2 (12) | Difference from placebo in blood pressure change (LS modeled mean) (hypertensive subjects; Gender Female, 25 mg BID): −5.18 (19) | Difference from placebo in blood pressure change (LS modeled mean) (hypertensive subjects; Gender Female, 50 mg QD): −11.3 (15) | Difference from placebo in blood pressure change (LS modeled mean) (hypertensive subjects; Gender Female, 100 mg QD): −5.1 (18) | Difference from placebo in blood pressure change (LS modeled mean) (hypertensive subjects; Gender Male, 12.5 mg BID): −13.8 (8) | Difference from placebo in blood pressure change (LS modeled mean) (hypertensive subjects; Gender Male, 12.5 mg QD): −2.3 (11) | Difference from placebo in blood pressure change (LS modeled mean) (hypertensive subjects; Gender Male, 25 mg BID): −9.5 (11) | Difference from placebo in blood pressure change (LS modeled mean) (hypertensive subjects; Gender Male, 50 mg QD): −8.3 (13) | Difference from placebo in blood pressure change (LS modeled mean) (hypertensive subjects; Gender Male, 100 mg QD): −12.4 (12) | reduction in AOBP systolic BP, per-protocol, placebo-corrected (hypertensive subjects; Part-1 100 mg cohort): −10.3 mmHg | Difference from placebo in blood pressure change (LS modeled mean) (hypertensive subjects; Race Black, 12.5 mg BID): 5.57 (7) | Difference from placebo in blood pressure change (LS modeled mean) (hypertensive subjects; Race Black, 12.5 mg QD): 6.75 (11) | Difference from placebo in blood pressure change (LS modeled mean) (hypertensive subjects; Race Black, 25 mg BID): −10.1 (7) | Difference from placebo in blood pressure change (LS modeled mean) (hypertensive subjects; Race Black, 50 mg QD): −6.9 (8) | Difference from placebo in blood pressure change (LS modeled mean) (hypertensive subjects; Race Black, 100 mg QD): −7.0 (15) | Difference from placebo in blood pressure change (LS modeled mean) (hypertensive subjects; Race Other, 12.5 mg BID): −14.7 (15) | Difference from placebo in blood pressure change (LS modeled mean) (hypertensive subjects; Race Other, 12.5 mg QD): −7.5 (12) | Difference from placebo in blood pressure change (LS modeled mean) (hypertensive subjects; Race Other, 25 mg BID): −7.2 (23) | Difference from placebo in blood pressure change (LS modeled mean) (hypertensive subjects; Race Other, 50 mg QD): −12.1 (20) | Difference from placebo in blood pressure change (LS modeled mean) (hypertensive subjects; Race Other, 100 mg QD): −9.2 (15) | Change in AOBP BPdias, Mean (sem) (hypertensive subjects; 12.5 mg BID): −6.1 (1.8) mmHg | Change in AOBP BPsys, Mean (sem) (hypertensive subjects; 12.5 mg BID): −11.3 (3.1) mmHg | Change in AOBP BPdias, Mean (sem) (hypertensive subjects; 12.5 mg QD): −6.1 (1.8) mmHg | Change in AOBP BPsys, Mean (sem) (hypertensive subjects; 12.5 mg QD): −5.7 (3.1) mmHg | Change in AOBP BPdias, Mean (sem) (hypertensive subjects; 25 mg BID): −3.83 (2.1) mmHg | Change in AOBP BPsys, Mean (sem) (hypertensive subjects; 25 mg BID): −11.0 (2.6) mmHg | Change in AOBP BPdias, Mean (sem) (hypertensive subjects; 50 mg QD): −8.1 (1.7) mmHg | Change in AOBP BPsys, Mean (sem) (hypertensive subjects; 50 mg QD): −13.9 (2.6) mmHg | Change in AOBP BPdias, Mean (sem) (hypertensive subjects; 100 mg QD): −4.76 (1.5) mmHg | Change in AOBP BPsys, Mean (sem) (hypertensive subjects; 100 mg QD): −12.2 (2.7) mmHg | mean reduction in AOBP measured systolic BP (hypertensive subjects; doses of 50 mg and 100 mg QD): −11 to −13 mmHg | subjects with a change in BPsys >−15 mmHg (hypertensive subjects; [2]): 41% | subjects with a change in BPsys >−25 mmHg (hypertensive subjects; [2]): 25% | subjects who achieved >−23 mmHg fall in systolic blood pressure (hypertensive subjects; week 8, pooled 50 mg QD, 100 mg QD, 12.5 mg BID, 25 mg BID cohorts): 25% | mean reduction in systolic blood pressure in the highest response quartile (hypertensive subjects; week 8, pooled cohorts): −33.4+1.5 mmgHg | subjects who achieved a ≥15 mmHg fall in systolic blood pressure (hypertensive subjects; week 8, pooled cohorts): 41%

CC(=O)N[C@H]1CC[C@H](NC(=O)CN2CCN(c3nncc(-c4ccc(C)cc4)n3)CC2)CC1 [Compound A]
Ki (human CYP11B2 (hCYP11B2)): 1.27 nM | effect on PAC [1]: significantly decreased PAC

Source: US20250099475A1, “METHODS OF TREATING HYPERTENSION BY PERIODIC SUPPRESSION OF ALDOSTERONE SYNTHASE” (Mineralys Therapeutics, Inc., priority 2022, published 2025)
